In patent publication US20230329236A1, “HERBICIDAL PYRIMIDINE DERIVATIVES” (MoA Technology Limited, priority 2020, published 2023):

Legend:
Conditions in all cases: 336 h, Table 3, post-emergence, 14±1 days post application
[1] = test system: Amaranthus retroflexus (AMARE); assay: Post-emergence glasshouse test, visual injury, AMARE; format: in vivo
Method: (§1) Seeds of a variety of test species are grown in a sandy loam soil mixture, Lolium multiflorum (LOLMU), Amaranthus retroflexus (AMARE), Echinochloa crus-gaffi (ECHCG), Veronica persica (VERPE), Glycine max (GLXMA), Oryza sativa (ORYSA), Zea mays (ZEAMX), spring wheat (TRZAS), Ipomoea hederacea (IPOHE), Ipomoea purpurea (PHBPU), Stellaria media (STEME), Solanum nigrum (SOLNI), Digitaria sanguinalis (DIGSA), Setaria italica (SETIT), Alopecurus myosuroides (ALOMY) and Avena fatua (AVEFA).
(§2) After sowing, at growth stage BBCH 12-14 (post-emergence), the plants are sprayed with an aqueous spray solution derived from the formulation of the technical active ingredient in acetone/water (50:50) solution containing 0.5% Tween 20 (polyoxyethlyene sorbitan monolaureate, CAS RN 9005-64-5). The test compounds are applied at the required concentration of active ingredient in g/ha. The test plants are then grown in a glasshouse under controlled environmental conditions and watered regularly as required. After 14±1 days post application (for post-emergence test), the test is evaluated by assessing the percentage damage caused to the plants in comparison with the untreated plots. The biological activities for post-emergence testing are shown below (Table 3 and Table 4) as a % visual injury.

[2] = test system: Veronica persica (VERPE); assay: Post-emergence glasshouse test, visual injury, VERPE; format: in vivo
Method: as §1, §2

[3] = test system: Echinochloa crus-gaffi (ECHCG); assay: Post-emergence glasshouse test, visual injury, ECHCG; format: in vivo, Echinochloa crus-galli
Method: as §1, §2

[4] = test system: Lolium multiflorum (LOLMU); assay: Post-emergence glasshouse test, visual injury, LOLMU; format: in vivo
Method: as §1, §2

Structure (SMILES) | pest or weed control at 125 g/ha [1] | pest or weed control at 125 g/ha [2] | pest or weed control at 125 g/ha [3] | pest or weed control at 125 g/ha [4] | pest or weed control at 500 g/ha [1] | pest or weed control at 500 g/ha [2] | pest or weed control at 500 g/ha [3] | pest or weed control at 500 g/ha [4] | further results
Cc1cc(-c2cnc(NCc3ccc(F)cc3)nc2C(F)(F)F)on1 [Compound 127] | 100% | 98% | 60% | 0% | – | – | – | – | –
Cc1cc(-c2cnc(NC3CCCC3)nc2C)on1 [Compound 92] | 90% | 70% | 50% | 60% | – | – | – | – | –
Cc1cc(-c2cnc(N3CCC(C(N)=O)CC3)nc2C2CC2)on1 [Compound 64] | – | – | – | – | 60% | 0% | 60% | 30% | –
COc1ccc(CNc2ncc(-c3cc(C)no3)c(C3CC3)n2)cc1OC [Compound 52] | – | – | – | – | 80% | 70% | 70% | 40% | –
Cc1cc(-c2cnc(N3Cc4ccccc4C3=N)nc2C(C)C)on1 [Compound 121] | 30% | 0% | 20% | 0% | – | – | – | – | –
Cc1cc(-c2cnc(NCc3ccccc3F)nc2C(C)C)on1 [Compound 55] | – | – | – | – | 100% | 99% | 70% | 40% | –
CCc1nc(NC2CCCC2)ncc1-c1cc(C)no1 [Compound 103] | 70% | 60% | 30% | 20% | – | – | – | – | –
Cc1cc(-c2cnc(NC3CCCCC3)nc2C(C)C)on1 [Compound 7] | 80% | 60% | 80% | 20% | – | – | – | – | pest or weed control at 250 g/ha [1]: 100%; pest or weed control at 250 g/ha [2]: 100%; pest or weed control at 250 g/ha [3]: 100%; pest or weed control at 250 g/ha [4]: 20%
Cc1cc(-c2cnc(NC3CCOCC3)nc2C(C)C)on1 [Compound 6] | 60% | 90% | 90% | 50% | – | – | – | – | pest or weed control at 250 g/ha [1]: 100%; pest or weed control at 250 g/ha [2]: 100%; pest or weed control at 250 g/ha [3]: 98%; pest or weed control at 250 g/ha [4]: 20%
Cc1cc(-c2cnc(NCc3ccncc3)nc2C(C)C)on1 [Compound 18] | – | – | – | – | – | – | – | – | pest or weed control at 1000 g/ha ([1]; 1000 g/ha): 90%; pest or weed control at 1000 g/ha ([2]; 1000 g/ha): 99%; pest or weed control at 1000 g/ha ([3]; 1000 g/ha): 30%; pest or weed control at 1000 g/ha ([4]; 1000 g/ha): 60%
Cc1cc(-c2cnc(N3CCN(c4ncccn4)CC3)nc2C(C)C)on1 [Compound 70] | – | – | – | – | 80% | 0% | 20% | 0% | –
Cc1cc(-c2cnc(NC3CCCCC3)nc2C(F)(F)F)on1 [Compound 125] | 70% | 0% | 50% | 20% | – | – | – | – | –
Cc1cc(-c2cnc(N3CCCC3)nc2C(C)C)on1 [Compound 29] | – | – | – | – | 0% | 50% | 50% | 0% | –
Cc1cc(-c2cnc(NC3CCc4sc(Cl)cc43)nc2C(C)C)on1 (stereo not drawn) [Compound 4] | 95% | 98% | 50% | 0% | – | – | – | – | –
Cc1cc(-c2cnc(NCc3ccccc3F)nc2C2CC2)on1 [Compound 81] | – | – | – | – | 98% | 80% | 80% | 30% | –
Cc1cc(-c2cnc(NCCc3c(C)noc3C)nc2C2CC2)on1 [Compound 46] | – | – | – | – | 90% | 50% | 70% | 60% | –
Cc1cc(-c2cnc(N3CCC(O)C(C)C3)nc2-c2ccc(C)o2)on1 (stereo not drawn) [Compound 36] | – | – | – | – | 30% | 0% | 30% | 0% | –
Cc1cc(-c2cnc(N3CCCC3)nc2-c2ccc(C)o2)on1 [Compound 58] | – | – | – | – | 0% | 0% | 10% | 20% | –
Cc1cc(-c2cnc(NCc3ccccn3)nc2C(C)C)on1 [Compound 39] | – | – | – | – | 70% | 80% | 20% | 0% | –
